Values joined by “and” are separate entries in the source; they are usually repeats but may differ in a detail not shown here. Equal entries are not always repeated.
What was measured:
[1] = Lipid hydroperoxide (LOOH) formation in cholesterol-enriched DLPC model membranes under autoxidation (Example 3); type: biochemical; conditions: EPA:lipid 1:30, C/P 0.6:1, autoxidation 37° C. 72 hours, vs untreated controls
Protocol: Levels of lipid hydroperoxides were also measured in cholesterol-enriched membrane prepared in the absence of EPA as a control. […] CHOD-iodide color reagent (stock) was prepared according to a procedure modified from El-Saadani et […], Goher […], Jurgens G. A spectrophotometric assay for lipid peroxides in serum lipoproteins using commercially available reagent. J. Lipid. […] Membrane samples consisting of DLPC±cholesterol were prepared as follows. Component lipids (in chloroform) were transferred to 13×100 mm test tubes and shell-dried under a steady stream of nitrogen gas while vortex mixing. The lipid was co-dried with EPA. Residual solvent was removed by drying for a minimum of 3 h under vacuum. After desiccation, each membrane sample was resuspended in diffraction buffer (0.5 mM HEPES, 154 mM NaCl, pH 7.3) to yield a final phospholipid concentration of 1.0 mg/mL. Multilamellar vesicles (MLV) were formed by vortex mixing for 3 minutes at ambient temperature. […] Absorbances were measured against a CHOD blank at 365 nm using a Beckman DU-640 spectrophotometer. The CHOD colorimetric assay is based on the oxidation of iodide (I^-) by lipid hydroperoxides (LOOH) and proceeds according to the following reaction scheme: […]3^- The quantity of triiodide anion (I3^-) liberated in this reaction is directly proportional to the amount of lipid hydroperoxides present in the membrane sample.

[2] = X-ray diffraction of cholesterol domains in POPC/cholesterol model membranes, C/P 1.5:1 (Example 9); conditions: drug-to-phospholipid mole ratio 1:30, C/P 1.5:1
Protocol: Multilamellar vesicles (MLVs) were prepared as binary mixtures that include palmitoyloleoylphosphatidylcholine (POPC) (1.0 mg total phospholipid per sample) and cholesterol at an elevated cholesterol-to-phospholipid (C/P) mole ratio of 1.5:1. […] Samples were shell-dried under nitrogen gas and placed under vacuum for 3 hours to remove residual solvent at room temperature. After desiccation, each sample was resuspended in saline buffer (0.5 mM HEPES, 154 mM NaCl, pH 7.3) to yield a final phospholipid concentration of 2.5 mg/mL. Lipid suspensions were then vortexed for 3 minutes at ambient temperature to form MLVs.
Briefly, a 100 μL aliquot of each MLV preparation (containing 250 μg MLV) was transferred to a Lucite® sedimentation cell fitted with an aluminum foil substrate designed to collect MLVs into a single membrane pellet upon centrifugation. Samples were then loaded into a Sorvall AH-629 swinging bucket rotor (DuPont Corp., Wilmington, Del.) and centrifuged at 35,000 g, 5° C., for 90 minutes.
After centrifugal orientation, sample supernatants were aspirated and aluminum foil substrates, each supporting a single membrane pellet, were removed from the sedimentation cells. Sample pellets were dried for 5-10 minutes at ambient conditions, mounted onto curved glass supports, and placed in hermetically-sealed, brass or glass containers (for immediate analysis or temporary storage, respectively). All x-ray diffraction experiments were conducted at 20° C., 74% relative humidity. The latter was established by exposing membrane samples to saturated solutions of […] (K2C4H4O6.½H2O) for at least 1 hour prior to experimental analysis.
Oriented membrane samples were aligned at grazing incidence with respect to a collimated, mono-chromatic CuKα x-ray beam (Kα1 and Kα2 unresolved; λ=1.54 Å) produced by a Rigaku Rotaflex RU-200, high-brilliance microfocus generator (Rigaku-MSC, The Woodlands, Tex.) as previously described (Mason et al., Biophys. J., vol. 55(4), pages 769-778 (1989)). The samples were initially subjected to x-ray diffraction analysis at least 12 hours after formation of the membrane pellets and retested for up to several days. Analytical x-rays were generated by electron bombardment of a rotating copper anode and are filtered through a thin nickel foil to provide monochromatic radiation (λ=1.54 Å). Collimation of the x-ray beam was achieved using a single Franks mirror. […]
The d-space for any given membrane multi bilayer is a measurement of the unit cell periodicity of the membrane lipid bilayer (e.g., the distance from the center of one lipid bilayer to the next including surface hydration), and is calculated from Bragg's Law, hλ=2d sin θ, where h is the diffraction order, λ is the wavelength of the x-ray radiation (1.54 Å), d is the membrane lipid bilayer unit cell periodicity, and θ is the Bragg angle equal to one-half the angle between the incident beam and scattered beam.
The presence of cholesterol domains in a given membrane sample results in the production of distinct Bragg (diffraction) peaks having singular periodicity values of 34 and 17 Å (typically referred to as first- and second-order cholesterol domain peaks). Under the specific temperature and relative humidity conditions established for these experiments, the second-order, 17 Å cholesterol domain peak was well-delineated from other, neighboring cholesterol and phospholipid diffraction peaks and was thus used to quantitate relative cholesterol domain peak intensity. […]

unfractionated LDL = assay: Copper-induced oxidation of unfractionated LDL, TBARS (Example 7); type: biochemical, human; conditions: 10 μM, 1 hr
Protocol: (§1) An experiment to study the antioxidant effect of EPA in LDL and small dense […] performed. […] Fenofibrate, gemfibrozil, and niacin were purchased from Sigma-Aldrich. […] Vitamin E was also incubated with sample aliquots as a positive control.

human sdLDL = assay: Copper-induced sdLDL oxidation, TBARS (Example 7); type: biochemical
Protocol: as §1

sdLDL = assay: Glucose-induced sdLDL oxidation, MDA/TBARS (Example 10); type: biochemical, human; conditions: 10.0 μM, glucose 200 mg/dL
Protocol: Vitamin E (α-tocopherol) purchased from Sigma-Aldrich was prepared in ethanol at 1.0 mM (ε=3.06×10^4 M^−1 cm^−1 at 294 nm) prior to experimental use. Test compounds were further diluted in ethanol or aqueous buffer as needed. Phosphate Buffered Saline (PBS) purchased from Sigma-Aldrich was prepared in double distilled water at 10 mM (138 mM NaCl, 2.7 mM KCl, pH 7.4). […] Lipid oxidation was measured by the colorimetric detection of malondialdehyde (MDA), a marker of oxidative stress.

Structure (SMILES)	reduction of LOOH levels [1]	reduction in cholesterol domain peaks vs vehicle [2] [%]	inhibition of TBARS formation (unfractionated LDL; unfractionated LDL, vs vehicle) [%]	effect on sdLDL oxidation (human sdLDL; 10.0 μM, after 4 hours, vs vehicle or DHA)	inhibition of sdLDL oxidation (TBARS formation) (human sdLDL; each agent at 10 μM, 1 hr, vs vehicle, 10 µM)	MDA formation (sdLDL) [µM]	inhibition of sdLDL oxidation (sdLDL; vs vehicle controls) [%]	effect on cholesterol domains [2]	effect on unfractionated LDL oxidation (unfractionated LDL; vs vehicle-treated controls)	effect on sdLDL oxidation (human sdLDL; 10 μM, 1 hr, vs vehicle-treated controls)	effect on glucose-induced sdLDL oxidation (sdLDL)
CC/C=C\C/C=C\C/C=C\C/C=C\C/C=C\CCCC(=O)O [EPA, cis-5,8,11,14,17-eicosapentaenoic acid]	greater than 90%	65	> 90	significantly inhibited sdLDL oxidation	93±2% and 92±8%	0.2 ± 0.1	94	–	–	–	–
O=C(O)c1cccnc1 [Niacin, nicotinic acid]	–	–	–	–	–	–	–	no significant changes in cholesterol domain size	no significant effect	no significant effect	did not inhibit
